One series is described as follows: Oral exposures in mice. It is filed as in vivo. The note with it: oral gavage, non-tumor-bearing male mice (Table S1).
Series [1] addresses T1, AR protein (Homo sapiens, UniProt P10275).
T1 sequence (P10275 1-920): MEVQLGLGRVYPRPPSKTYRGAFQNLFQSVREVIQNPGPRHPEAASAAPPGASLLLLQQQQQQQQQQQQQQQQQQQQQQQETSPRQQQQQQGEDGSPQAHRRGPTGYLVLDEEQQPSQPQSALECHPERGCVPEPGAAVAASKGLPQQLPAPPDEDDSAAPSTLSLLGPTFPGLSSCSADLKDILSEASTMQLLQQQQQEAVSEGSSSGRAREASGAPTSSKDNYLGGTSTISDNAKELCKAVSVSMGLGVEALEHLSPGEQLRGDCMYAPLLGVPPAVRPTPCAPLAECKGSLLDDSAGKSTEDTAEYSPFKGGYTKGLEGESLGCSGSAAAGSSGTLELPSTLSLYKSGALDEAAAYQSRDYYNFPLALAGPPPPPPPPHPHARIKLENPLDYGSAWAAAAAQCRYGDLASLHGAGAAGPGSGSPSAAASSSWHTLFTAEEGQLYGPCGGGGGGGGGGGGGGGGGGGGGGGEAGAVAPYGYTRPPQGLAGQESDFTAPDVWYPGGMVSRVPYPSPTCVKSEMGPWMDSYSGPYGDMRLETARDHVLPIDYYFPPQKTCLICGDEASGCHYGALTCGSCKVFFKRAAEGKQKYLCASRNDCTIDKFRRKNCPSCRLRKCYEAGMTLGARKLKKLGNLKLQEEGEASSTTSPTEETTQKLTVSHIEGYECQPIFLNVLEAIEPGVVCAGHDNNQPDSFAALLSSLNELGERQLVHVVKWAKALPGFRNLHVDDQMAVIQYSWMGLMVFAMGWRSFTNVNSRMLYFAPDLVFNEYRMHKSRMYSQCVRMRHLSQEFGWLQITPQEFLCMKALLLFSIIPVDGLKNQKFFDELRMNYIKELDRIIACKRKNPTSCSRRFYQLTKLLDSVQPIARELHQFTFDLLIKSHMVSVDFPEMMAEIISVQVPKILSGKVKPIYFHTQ
Kind of series: AR degradation in VCaP cell line. It is filed as cell-based. The following applies: for reduction of AR protein level (degradation kinetics) / Dmax: VCaP; for reduction of AR protein level (degradation kinetics): 1 h; for Dmax: read-out: Dmax, AR degradation in VCaP cell line, VCaP cell line, 24 h treatment, Western blotting. In general terms: In western blotting, separated proteins are transferred to a membrane and probed.

The next series in a line: Pharmacokinetics in mice. It is filed as in vivo. The following applies: male, mouse, iv, 1 mg/kg.
For a further series, the target named is T2, AR T878A mutant protein (Homo sapiens, UniProt P10275, T878A).
T2 sequence (P10275 1-920 T878A): T1 sequence (P10275 1-920) with T878A
The following applies: LNCaP, 1 h.

Series [2] concerns the target T1, AR protein. The following applies: single oral administration 20 mg/kg, 6 and 24 h time-points, Western blotting.

The structures appear in SMILES notation. Changes are numbered by the printed parent chain.

Regarding `N#Cc1ccc(O[C@H]2CC[C@H](NC(=O)c3ccc(NCCCNc4ccc5c(c4)C(=O)N(C4CCC(=O)NC4=O)C5=O)cc3)CC2)cc1Cl` (stereo partly drawn) [Compound 11, N-((1R,4R)-4-(3-Chloro-4-cyanophenoxy)cyclohexyl)-4-((3-((2-(2,6-dioxopiperidin-3-yl)-1,3-dioxoisoindolin-5-yl)amino)propyl)-amino)benzamide], the “oral exposures in mice” value in the series “Oral exposures in mice” is reported as “very low”.

The term clearance denotes the rate of elimination divided by the concentration. Low values mean inefficient removal, high ones efficient removal. In the case of `N#Cc1ccc(O[C@H]2CC[C@H](NC(=O)c3ccc(N4CCC(N5CCN(c6ccc7c(c6)C(=O)N(C6CCC(=O)NC6=O)C7=O)CC5)CC4)cc3)CC2)cc1Cl` (stereo partly drawn) [Compound 26, N-(1R,4R)-4-((3-Chloro-4-cyanophenoxy)cyclohexyl)-4-(4-(4-(2-(2,6-dioxopiperidin-3-yl)-1,3-dioxoisoindolin-5-yl)piperazin-1-yl)-piperidin-1-yl)benzamide], the “reduction of AR protein level (degradation kinetics)” value (“reduction … (degradation kinetics)” below) at AR protein [1] and at AR T878A mutant protein was “effectively reduce” each time. Besides, the clearance in the series “Pharmacokinetics in mice” (plasma) was 6.67 mL/min/kg.

As for `N#Cc1ccc(O[C@H]2CC[C@H](NC(=O)c3ccc(N4CCN(CC5CN(c6ccc7c(c6)C(=O)N(C6CCC(=O)NC6=O)C7=O)C5)CC4)cc3)CC2)cc1Cl` (stereo partly drawn) [Compound 27, N-(1R,4R)-4-((3-Chloro-4-cyanophenoxy)cyclohexyl)-4-(4-((l-(2-(2,6-dioxopiperidin-3-yl)-1,3-dioxoisoindolin-5-yl)azetidin-3-yl)-methyl)piperazin-1-yl)benzamide], the “reduction … (degradation kinetics)” value at AR protein [1] and at AR T878A mutant protein was “effectively reduce” throughout.

In the case of `N#Cc1ccc(O[C@H]2CCC[C@H](NC(=O)c3ccc(N4CCC(N5CCN(c6ccc7c(c6)C(=O)N(C6CCC(=O)NC6=O)C7=O)CC5)CC4)cc3)CCC2)cc1Cl` (stereo partly drawn) [Compound 31, N-(1R,5R)-5-((3-Chloro-4-cyanophenoxy)cyclooctyl)-4-(4-(4-(2-(2,6-dioxopiperidin-3-yl)-1,3-dioxoisoindolin-5-yl)piperazin-1-yl)-piperidin-1-yl)benzamide], the “Dmax, AR degradation in VCaP cell line” value at AR protein [1] (VCaP cell line, 24 h treatment, Western blotting) was determined as 54%.

Regarding `N#Cc1ccc(OC2CCN(C(=O)c3ccc(N4CCC(N5CCN(c6ccc7c(c6)C(=O)N(C6CCC(=O)NC6=O)C7=O)CC5)CC4)cc3)CC2)cc1Cl` (centres unmarked) [Compound 32, 2-Chloro-4-((1-(4-(4-(4-(2-(2,6-dioxopiperidin-3-yl)-1,3-dioxoisoindolin-5-yl)piperazin-1-yl)piperidin-1-yl)benzoyl)piperidin-4-yl)-oxy)benzonitrile], the “effect in reducing AR protein (in words)” value at AR protein [1] (VCaP cell line) is on record as “little or no effect”.

With `N#Cc1ccc(O[C@@H]2CCCN(C(=O)c3ccc(N4CCC(N5CCN(c6ccc7c(c6)C(=O)N(C6CCC(=O)NC6=O)C7=O)CC5)CC4)cc3)CC2)cc1Cl` (some centres unmarked) [Compound 33], at AR protein [1] (VCaP cell line), the “effect in reducing AR protein (in words)” value is given as “little or no effect”.

`CN(c1ccc(C#N)c(Cl)c1)[C@H]1CC[C@H](NC(=O)c2ccc(N3CCC(N4CCN(c5ccc6c(c5)C(=O)N(C5CCC(=O)NC5=O)C6=O)CC4)CC3)cc2)CC1` (some centres unmarked) [Compound 35] had a clearance in the series “Pharmacokinetics in mice” (plasma) of 5 mL/min/kg.

For `CN(c1ccc(C#N)c(Cl)c1)[C@H]1CC[C@H](NC(=O)c2ccc(N3CCC(CN4CCN(c5ccc6c(c5)C(=O)N(C5CCC(=O)NC5=O)C6=O)CC4)CC3)cc2)CC1` (stereo partly drawn) [Compound 40, N-(1R,4R)-4-(((3-Chloro-4-cyanophenyl)(methyl)amino)-cyclohexyl)-4-(4-((4-(2-(2,6-dioxopiperidin-3-yl)-1,3-dioxoisoindolin-5-yl)piperazin-1-yl)methyl)piperidin-1-yl)benzamide], the “reduction … (degradation kinetics)” value on AR protein [1] and on AR T878A mutant protein was “effectively reduce” throughout.

In the case of `CN(c1ccc(C#N)c(Cl)c1)[C@H]1CC[C@H](NC(=O)c2ccc(N3CCN(C4CCN(c5ccc6c(c5)C(=O)N(C5CCC(=O)NC5=O)C6=O)CC4)CC3)cc2)CC1` (stereo partly drawn) [Compound 41, N-(1R,4R)-4-(((3-Chloro-4-cyanophenyl)(methyl)amino)-cyclohexyl)-4-(4-(1-(2-(2,6-dioxopiperidin-3-yl)-1,3-dioxoisoindolin-5-yl)piperidin-4-yl)piperazin-1-yl)benzamide], the “reduction … (degradation kinetics)” value on AR protein [1] and at AR T878A mutant protein was “effectively reduce” in each case. Moreover, the “reduction of AR protein level in VCaP tumor tissue” value on AR protein [2] was “effective”.

With `CN(c1ccc(C#N)c(Cl)c1)[C@H]1CC[C@H](NC(=O)c2ccc(N3CC(CN4CCN(c5ccc6c(c5)C(=O)N(C5CCC(=O)NC5=O)C6=O)CC4)C3)cc2)CC1` (stereo partly drawn) [Compound 44, N-(1R,4R)-4-(((3-Chloro-4-cyanophenyl)(methyl)amino)-cyclohexyl)-4-(3-((4-(2-(2,6-dioxopiperidin-3-yl)-1,3-dioxoisoindolin-5-yl)piperazin-1-yl)methyl)azetidin-1-yl)benzamide], the “reduction … (degradation kinetics)” value on AR protein [1] and at AR T878A mutant protein was “effectively reduce” each time.

The term Vd denotes a proportionality between amount in the body and measured concentration, not a real space. The term half-life denotes the time in which the quantity being followed falls by half. A lower half-life goes with fast loss. With `CN(c1ccc(C#N)c(Cl)c1)[C@H]1CC[C@H](NC(=O)c2ccc(N3CC(N4CCN(c5ccc6c(c5)C(=O)N(C5CCC(=O)NC5=O)C6=O)CC4)C3)cc2)CC1` (stereo partly drawn) [Compound 45, N-(1R,4R)-4-(((3-Chloro-4-cyanophenyl)(methyl)amino)-cyclohexyl)-4-(3-(4-(2-(2,6-dioxopiperidin-3-yl)-1,3-dioxoisoindolin-5-yl)piperazin-1-yl)azetidin-1-yl)benzamide], the “reduction … (degradation kinetics)” value at AR protein [1] is reported as “effectively reduce”. In addition, in “Pharmacokinetics in mice” (in vivo), the volume of distribution (Vd) was in the range of 1.8 to 2.1 L/kg, the clearance lay within 3.33 to 5 mL/min/kg and the half-life fell in the range of 5.5 to 7.5 h. In addition, in the series “Pharmacokinetics in mice” (plasma), the clearance was 3.33 mL/min/kg. Also, the “reduction … (degradation kinetics)” value on AR T878A mutant protein was “effectively reduce”. Besides, the “reduction of AR protein level in VCaP tumor tissue” value on AR protein [2] was “effective”.

As usually defined, the Dmax is the greatest extent of degradation seen. On to `CC(O)(CS(=O)(=O)c1ccc(N2CCN(C3CCN(c4ccc5c(c4)C(=O)N(C4CCC(=O)NC4=O)C5=O)CC3)CC2)cc1)C(=O)Nc1ccc(C#N)c(C(F)(F)F)c1` (centres unmarked) [Compound 46, N-(4-Cyano-3-(trifluoromethyl)phenyl)-3-((4-(4-(1-(2-(2,6-dioxopiperidin-3-yl)-1,3-dioxoisoindolin-5-yl)piperidin-4-yl)piperazin-1-yl)phenyl)sulfonyl)-2-hydroxy-2-methylpropanamide], for which the Dmax on AR protein [1] was < 32%.

With `N#Cc1ncc(N2C(=O)C3(CCC3)N(c3ccc(C(=O)N4CCN(C5CCN(c6ccc7c(c6)C(=O)N(C6CCC(=O)NC6=O)C7=O)CC5)CC4)c(F)c3)C2=S)cc1C(F)(F)F` (centres unmarked) [Compound 48, 5-(5-(4-(4-(1-(2-(2,6-Dioxopiperidin-3-yl)-1,3-dioxoisoindolin-5-yl)piperidin-4-yl)piperazine-1-carbonyl)-3-fluorophenyl)-8-oxo-6-thioxo-5,7-diazaspiro[3.4]octan-7-yl)-3-(trifluoromethyl)-picolinonitrile], on AR protein [1], the Dmax is < 32%.
